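All cell lines were grown in 96-well plates and treated with compound for 48 hours. The concentration for full growth arrest is given as TGI.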
Tested on: KM12 colon
Test: NCI-60 cell line screen, 48 h

`CN(Nc1cc(=O)[nH]c(=O)[nH]1)c1ccccc1` and `Cc1cn2c(=O)c3ccccc3nc2s1` cannot be ordered by TGI: > 100 µM for the first, > 100 µM for the second.

Compared with `Cc1ccc(S(=O)(=O)C2=Cc3ccc(C(F)(F)F)cc3C2(O)c2cccc(C(F)(F)F)c2)cc1` (stereo not given), `COc1cccc(OC)c1/C=C1\OC(=O)c2cccc(OC)c21` is higher in TGI: 4.53 µM for the first, > 100 µM for the second.

`CC(C)=CCS(=O)c1ccccc1NC1=CC(=O)CC(C)(C)C1` (stereo not given) and `N#CC(NNC(=O)Cc1ccccc1)c1ccccc1O` (stereo not given) cannot be ordered by TGI: > 100 µM for the first, > 100 µM for the second.

With `CN=NN(C)C(=O)NC` the TGI was > 100 µM.

Tested on: COLO 205 colon
Test: NCI-60 cell line screen, 48 h

`CN(Nc1cc(=O)[nH]c(=O)[nH]1)c1ccccc1` and `Cc1cn2c(=O)c3ccccc3nc2s1` cannot be ordered by TGI: > 100 µM for the first, > 100 µM for the second.

First: Cc1ccc(S(=O)(=O)C2=Cc3ccc(C(F)(F)F)cc3C2(O)c2cccc(C(F)(F)F)c2)cc1 (stereo not given)
Second: COc1cccc(OC)c1/C=C1\OC(=O)c2cccc(OC)c21
The TGI of the first is 9-fold lower: 3.43 µM for the first, 30.9 µM for the second.

`CC(C)=CCS(=O)c1ccccc1NC1=CC(=O)CC(C)(C)C1` (stereo not given) and `N#CC(NNC(=O)Cc1ccccc1)c1ccccc1O` (stereo not given) cannot be ordered by TGI: > 100 µM for the first, > 100 µM for the second.

`CN=NN(C)C(=O)NC` was tested, and the TGI was > 100 µM.

Tested on: DMS 114 small cell lung
Test: NCI-60 cell line screen, 48 h

`Cc1cn2c(=O)c3ccccc3nc2s1` and `CN=NN(C)C(=O)NC` cannot be ordered by TGI: > 100 µM for the first, > 100 µM for the second.

Tested on: ACHN renal
Test: NCI-60 cell line screen, 48 h

`CN(Nc1cc(=O)[nH]c(=O)[nH]1)c1ccccc1` and `Cc1cn2c(=O)c3ccccc3nc2s1` cannot be ordered by TGI: > 100 µM for the first, > 100 µM for the second.

Compared with `Cc1ccc(S(=O)(=O)C2=Cc3ccc(C(F)(F)F)cc3C2(O)c2cccc(C(F)(F)F)c2)cc1` (stereo not given), `COc1cccc(OC)c1/C=C1\OC(=O)c2cccc(OC)c21` is higher in TGI: 7.64 µM for the first, > 100 µM for the second.

First: CC(C)=CCS(=O)c1ccccc1NC1=CC(=O)CC(C)(C)C1 (stereo not given)
Second: N#CC(NNC(=O)Cc1ccccc1)c1ccccc1O (stereo not given)
The TGI of the first is higher: > 100 µM for the first, 43.8 µM for the second.

With `CN=NN(C)C(=O)NC` the TGI was > 100 µM.

Tested on: HS 578T breast
Test: NCI-60 cell line screen, 48 h

`CN(Nc1cc(=O)[nH]c(=O)[nH]1)c1ccccc1` and `CC(C)=CCS(=O)c1ccccc1NC1=CC(=O)CC(C)(C)C1` (stereo not given) cannot be ordered by TGI: > 100 µM for the first, > 100 µM for the second.

Compared with `Cc1ccc(S(=O)(=O)C2=Cc3ccc(C(F)(F)F)cc3C2(O)c2cccc(C(F)(F)F)c2)cc1` (stereo not given), `COc1cccc(OC)c1/C=C1\OC(=O)c2cccc(OC)c21` is lower in TGI: > 27.2 µM for the first, 26.7 µM for the second.

With `N#CC(NNC(=O)Cc1ccccc1)c1ccccc1O` (stereo not given) the TGI was > 100 µM.

Tested on: DMS 273 small cell lung
Test: NCI-60 cell line screen, 48 h

`Cc1cn2c(=O)c3ccccc3nc2s1` and `N#CC(NNC(=O)Cc1ccccc1)c1ccccc1O` (stereo not given) cannot be ordered by TGI: > 100 µM for the first, > 100 µM for the second.

Tested on: K-562 leukemia
Test: NCI-60 cell line screen, 48 h

`CN(Nc1cc(=O)[nH]c(=O)[nH]1)c1ccccc1` and `Cc1cn2c(=O)c3ccccc3nc2s1` cannot be ordered by TGI: > 100 µM for the first, > 100 µM for the second.

First: Cc1ccc(S(=O)(=O)C2=Cc3ccc(C(F)(F)F)cc3C2(O)c2cccc(C(F)(F)F)c2)cc1 (stereo not given)
Second: COc1cccc(OC)c1/C=C1\OC(=O)c2cccc(OC)c21
The TGI of the first is lower: 6.34 µM for the first, > 100 µM for the second.

`CC(C)=CCS(=O)c1ccccc1NC1=CC(=O)CC(C)(C)C1` (stereo not given) and `N#CC(NNC(=O)Cc1ccccc1)c1ccccc1O` (stereo not given) cannot be ordered by TGI: > 100 µM for the first, > 100 µM for the second.

In the case of `CN=NN(C)C(=O)NC`, the TGI is reported as > 100 µM.

Tested on: RXF 393 renal
Test: NCI-60 cell line screen, 48 h

`CN(Nc1cc(=O)[nH]c(=O)[nH]1)c1ccccc1` and `Cc1cn2c(=O)c3ccccc3nc2s1` cannot be ordered by TGI: > 100 µM for the first, > 100 µM for the second.

Compared with `Cc1ccc(S(=O)(=O)C2=Cc3ccc(C(F)(F)F)cc3C2(O)c2cccc(C(F)(F)F)c2)cc1` (stereo not given), `COc1cccc(OC)c1/C=C1\OC(=O)c2cccc(OC)c21` is 10-fold higher in TGI: 6.26 µM for the first, 65 µM for the second.

`CC(C)=CCS(=O)c1ccccc1NC1=CC(=O)CC(C)(C)C1` (stereo not given) and `N#CC(NNC(=O)Cc1ccccc1)c1ccccc1O` (stereo not given) cannot be ordered by TGI: > 100 µM for the first, > 100 µM for the second.

With `CN=NN(C)C(=O)NC` the TGI was > 100 µM.

Tested on: NCI-H522 lung
Test: NCI-60 cell line screen, 48 h

Going from `Cc1ccc(S(=O)(=O)C2=Cc3ccc(C(F)(F)F)cc3C2(O)c2cccc(C(F)(F)F)c2)cc1` (stereo not given) to `COc1cccc(OC)c1/C=C1\OC(=O)c2cccc(OC)c21`, the TGI rises from 3.84 µM to 12.2 µM (3.2-fold).

`CC(C)=CCS(=O)c1ccccc1NC1=CC(=O)CC(C)(C)C1` (stereo not given) and `Cc1cn2c(=O)c3ccccc3nc2s1` cannot be ordered by TGI: > 100 µM for the first, > 100 µM for the second.

`CN=NN(C)C(=O)NC` and `N#CC(NNC(=O)Cc1ccccc1)c1ccccc1O` (stereo not given) cannot be ordered by TGI: > 100 µM for the first, > 41.1 µM for the second.
